The text below walks through data of patent publication US5719291A, “Cyclohexane derivatives” (Hoffmann-La Roche Inc., priority 1991, dated 1998).

What all share (assay): In vitro antifungal activity, MIC (Method A)
What all share (assay type): cell-based

In one assay the test system is Candida albicans. The note with it: Candida albicans, 72 h, 3 days, 27° C. As to the method:
(§1) The in vitro antifungal activities of representative compounds of the present invention were measured by determining the minimal inhibitory concentration (MIC), which is the concentration of an antifungal at which no fungal growth can be observed.
(§2) The MICs were determined by the microbroth dilution procedure according to NCCLS with the following minor modifications (Galgiani et al., Antimicrob. Agents Chemother., 33, 731 (1989). The medium was solidified with 0.2% low melting point agarose and buffered to pH 7.0 with 0.25%: K2 HPO4 in Yeast Nitrogen Base (Difco Lab.). Inoculum size was 1×10^5 cells/ml, and incubation was carried out for 3 days at 27° C. The MICs ([…]) are shown in Table 1. The reference compound is compound (IA) in U.S. Pat. No. 4,952,604. The compounds used are identified by reference to the Examples in which they were prepared.
(§3) The in vitro antifungal activities of the representative compounds of the present invention shown in Table 1 and Table 2 were measured by determining the minimal inhibitory concentrations (MIC: Method A) or 80% growth inhibition concentration (IC80 : Method B) respectively. MIC is defined as the concentration of an antifungal at which growth of fungi is not observed and IC80 is the concentration where cell turbidity measured at OD630 is reduced by 80%.
(§4) Antifungal activities were determined by either method A or B (see below) using microtest plates according NCCLS with minor modifications (Galgiani et at., Antimicrob. Agents Chemother. 33, 731 (1989)).
(§5) (Method A) The medium was solidified with 0.2% low melting point agarose and buffered to pH 7.0 with 0.25% K2 HPO4 in Yeast Nitrogen Base (Difco Lab.). Inoculum size was 1×10^5 cells/ml, and incubation was carried out for 3 days at 27° C. The reference compound is compound (IA) in U.S. Pat. No. 4,952,604.

The next assay relates to Cryptococcus neoformans. The note with it: Cryptococcus neoformans, 72 h, 3 days, 27° C. As to the method:
as §1, §2, §3, §4, §5

For the next assay, the system named is Aspergillus fumigatus. The following applies: Aspergillus fumigatus, 72 h, 3 days, 27° C. As to the method: as §1, §2, §3, §4, §5
The mark [1] stands for this setting: pH 7, Candida albicans CY1002, 1×10^5 cells/ml.
The mark [2] stands for this setting: pH 7, Candida albicans CY1005, 1×10^5 cells/ml.
Where [3] appears, read: pH 7, Candida albicans CY3003, 1×10^5 cells/ml.
Where [4] appears, read: pH 7, Cryptococcus neoformans CY1057, 1×10^5 cells/ml.
[5] abbreviates: pH 7, Cryptococcus neoformans CY1059, 1×10^5 cells/ml.
Setting [6] is: pH 7, Cryptococcus neoformans CY1061, 1×10^5 cells/ml.
The mark [7] stands for this setting: pH 7, Aspergillus fumigatus CF1003, 1×10^5 cells/ml.
[8] abbreviates: pH 7, Aspergillus fumigatus CF1004, 1×10^5 cells/ml.
[9] abbreviates: pH 7, Aspergillus fumigatus CF1023, 1×10^5 cells/ml.

In brackets after ≈: the same amount, converted by molar mass.

One may read the MIC as the lowest concentration that inhibits growth of the organism. High values mean weaker potency, low ones greater potency.

`CCCCCCCCC[C@@H]1OC[C@@H](C)[C@H](OC)[C@@H]1OC(=O)CN.O=C(O)C(F)(F)F` [Example 43, (2S,3R,4S,5R)-4-methoxy-5-methyl-2-nonyltetrahydro-2H-pyran-3-yl glycinate trifluoroacetic acid salt]: the MIC turned out to be 50 µg/mL in the assay on Candida albicans (setting [1]); 25 µg/mL against Candida albicans (setting [2]); 25 µg/mL against Candida albicans (setting [3]); 6.25 µg/mL against Cryptococcus neoformans (setting [4]); 6.25 µg/mL against Cryptococcus neoformans (setting [5]); 12.5 µg/mL in the assay on Cryptococcus neoformans (setting [6]). In addition, the results for the MIC against Aspergillus fumigatus (setting [7]), against Aspergillus fumigatus (setting [8]) and against Aspergillus fumigatus (setting [9]) were 50 µg/mL, 50 µg/mL and 25 µg/mL, respectively.
Turning to `CCCCCCC/C=C\[C@@H]1OC[C@@H](C)[C@H](OC)[C@H]1OC(=O)CN.O=C(O)C(F)(F)F` [Example 42, (2S,3R,4S,5R)-4-methoxy-5-methyl-2-[(Z)-1-nonenyl]tetrahydro-2H-pyran-3-yl glycinate trifluoroacetic acid salt], the MIC with Candida albicans (setting [1]) came to 100 µg/mL; in the assay with Candida albicans (setting [2]) it was 50 µg/mL; in the assay with Candida albicans (setting [3]), 50 µg/mL; with Cryptococcus neoformans (setting [4]), 3.13 µg/mL; in the assay on Cryptococcus neoformans (setting [5]), 3.13 µg/mL; against Cryptococcus neoformans (setting [6]) it was 12.5 µg/mL. Besides, the MIC was found to be 100 µg/mL in the assay with Aspergillus fumigatus (setting [7]), 100 µg/mL with Aspergillus fumigatus (setting [8]) and 50 µg/mL against Aspergillus fumigatus (setting [9]).
On to `CCCCCCCCO[C@@H]1CCC(C)(C)C[C@H]1CC(O)CN` (relative stereo) [Example 84, 1-[(1S^*,2R^*)-5,5-dimethyl-2-octyloxycyclohexyl]-3-amino-2-propanol], for which the MIC against Candida albicans (setting [1]) came out at 12.5 µg/mL (≈ 39.9 µM); in the assay on Candida albicans (setting [2]) it was 12.5 µg/mL (≈ 39.9 µM); in the assay on Candida albicans (setting [3]), 12.5 µg/mL (≈ 39.9 µM); against Cryptococcus neoformans (setting [4]) it was 3.13 µg/mL (≈ 9.98 µM); with Cryptococcus neoformans (setting [5]), 6.25 µg/mL (≈ 19.9 µM); in the assay with Cryptococcus neoformans (setting [6]), 6.25 µg/mL (≈ 19.9 µM). Also, the MIC with Aspergillus fumigatus (setting [7]) is 25 µg/mL (≈ 79.7 µM); against Aspergillus fumigatus (setting [8]), 6.25 µg/mL (≈ 19.9 µM); in the assay on Aspergillus fumigatus (setting [9]), 6.25 µg/mL (≈ 19.9 µM).
On to `CCCCCCCC/C=C/[C@@H]1OC[C@H](C)[C@H](OC)[C@H]1OC(=O)CN.O=C(O)C(F)(F)F` [Example 6, (2S,3R,4S,5S)-2-[(E)-1-decenyl]-4-methoxy-5-methyltetrahydro-2H-pyran-3-yl glycinate trifluoroacetic acid salt], for which the MIC against Candida albicans (setting [1]) worked out at 100 µg/mL; in the assay on Candida albicans (setting [2]), 100 µg/mL; in the assay on Candida albicans (setting [3]) it was 100 µg/mL; against Cryptococcus neoformans (setting [4]), 12.5 µg/mL; against Cryptococcus neoformans (setting [5]) it was 12.5 µg/mL; in the assay with Cryptococcus neoformans (setting [6]) it was 25 µg/mL. Besides, the MIC against Aspergillus fumigatus (setting [7]) stood at 12.5 µg/mL; against Aspergillus fumigatus (setting [8]), 12.5 µg/mL; in the assay with Aspergillus fumigatus (setting [9]) it was 6.25 µg/mL.
With `CCCCCCCCO[C@@H]1CCC(C)(C)[C@H](OC)[C@@H]1Cn1ccnc1` [Example 68, 1-[[(1R,2R,6R)-2-methoxy-3,3-dimethyl-6-octyloxy-cyclohexyl]methyl]-1H-imidazole], the minimal inhibitory concentration (MIC) is 25 µg/mL (≈ 71.3 µM) against Candida albicans (setting [1]); 12.5 µg/mL (≈ 35.7 µM) against Candida albicans (setting [2]); 12.5 µg/mL (≈ 35.7 µM) in the assay on Candida albicans (setting [3]); 0.39 µg/mL (≈ 1.11 µM) against Cryptococcus neoformans (setting [4]); 0.78 µg/mL (≈ 2.23 µM) against Cryptococcus neoformans (setting [5]); 3.13 µg/mL (≈ 8.93 µM) against Cryptococcus neoformans (setting [6]). In addition, the MIC turned out to be 6.25 µg/mL (≈ 17.8 µM) in the assay on Aspergillus fumigatus (setting [7]), 12.2 µg/mL (≈ 34.9 µM) in the assay with Aspergillus fumigatus (setting [8]) and 6.25 µg/mL (≈ 17.8 µM) in the assay with Aspergillus fumigatus (setting [9]).
In the case of `CCCCCCC/C=C\[C@@H]1OC[C@H](C)[C@H](OCC)[C@@H]1OC(=O)CN.O=C(O)C(F)(F)F` [Example 27, (2S,3R,4S,5S)-4-ethoxy-5-methyl-2-[(Z)-1-nonenyl]tetrahydro-2H-pyran-3-yl glycinate trifluoroacetic acid salt], the MIC in the assay with Candida albicans (setting [1]) amounted to 100 µg/mL; against Candida albicans (setting [2]) it was 100 µg/mL; with Candida albicans (setting [3]) it was 50 µg/mL; with Cryptococcus neoformans (setting [4]), 6.25 µg/mL; in the assay with Cryptococcus neoformans (setting [5]), 12.5 µg/mL; against Cryptococcus neoformans (setting [6]), 12.5 µg/mL. Besides, the MIC in the assay with Aspergillus fumigatus (setting [7]) stood at 50 µg/mL; against Aspergillus fumigatus (setting [8]), 100 µg/mL; with Aspergillus fumigatus (setting [9]), 50 µg/mL.
On to `CCCCCCCCC[C@@H]1OC[C@H](C)[C@H](OC)[C@@H]1OC(=O)CN.O=CO` [Example 5, (2S,3R,4S,5S)-4-methoxy-5-methyl-2-nonyl-tetrahydro-2H-pyran-3-yl glycinate formic acid salt], for which the MIC was 50 µg/mL in the assay with Candida albicans (setting [1]); 25 µg/mL against Candida albicans (setting [2]); 25 µg/mL against Candida albicans (setting [3]); 12.5 µg/mL in the assay on Cryptococcus neoformans (setting [4]); 12.5 µg/mL against Cryptococcus neoformans (setting [5]); 25 µg/mL against Cryptococcus neoformans (setting [6]). In addition, the MIC against Aspergillus fumigatus (setting [7]) worked out at 50 µg/mL; in the assay on Aspergillus fumigatus (setting [8]), 100 µg/mL; against Aspergillus fumigatus (setting [9]), 50 µg/mL.
Consider `CCCCC/C=C/C=C/[C@@H]1OC[C@H](C)[C@H](OC)[C@H]1OC(=O)CN.O=CO` [Example 47, (2S,3R,4S,5S)-4-methoxy-5-methyl-2-[(1E,3E)-1,3-nonadienyl]tetrahydro-2H-pyran-3-yl glycinate formic acid salt], for which the MIC amounted to 100 µg/mL in the assay with Candida albicans (setting [1]); 100 µg/mL in the assay on Candida albicans (setting [2]); 100 µg/mL against Candida albicans (setting [3]); 12.5 µg/mL in the assay on Cryptococcus neoformans (setting [4]); 12.5 µg/mL against Cryptococcus neoformans (setting [5]); 25 µg/mL against Cryptococcus neoformans (setting [6]). For the same molecule, the MIC against Aspergillus fumigatus (setting [7]), with Aspergillus fumigatus (setting [8]) and in the assay with Aspergillus fumigatus (setting [9]) was 25 µg/mL throughout.
Regarding `CCC/C=C/C=C/C=C/[C@@H]1OC[C@H](C)[C@H](OC)[C@H]1OC(=O)CN.O=CO` [Example 11, (2S,3R,4S,5S)-4-methoxy-5-methyl-2-[(1E,3E,5E)-1,3,5-nonatrienyl]tetrahydro-2H-pyran-3-yl glycinate formic acid salt], the MIC in the assay with Candida albicans (setting [1]) was 200 µg/mL; with Candida albicans (setting [2]), 200 µg/mL; in the assay with Candida albicans (setting [3]), 100 µg/mL; with Cryptococcus neoformans (setting [4]) it was 6.25 µg/mL; in the assay on Cryptococcus neoformans (setting [5]), 6.25 µg/mL; against Cryptococcus neoformans (setting [6]), 25 µg/mL. Also, the MIC in the assay on Aspergillus fumigatus (setting [7]), against Aspergillus fumigatus (setting [8]) and with Aspergillus fumigatus (setting [9]) was 6.25 µg/mL in each case.
As for `CCC/C=C/C=C/C=C\[C@@H]1OC[C@H](C)[C@H](OC)[C@H]1OC(=O)CN.O=CO` [Example 12, (2S,3R,4S,5S)-4-methoxy-5-methyl-2-[(1Z,3E,5E)-1,3,5-nonatrienyl]tetrahydro-2H-pyran-3-yl glycinate formic acid salt], the MIC is 200 µg/mL against Candida albicans (setting [1]); above 200 µg/mL in the assay on Candida albicans (setting [2]); above 200 µg/mL against Candida albicans (setting [3]); 1.56 µg/mL in the assay with Cryptococcus neoformans (setting [4]); 3.13 µg/mL against Cryptococcus neoformans (setting [5]); 6.25 µg/mL in the assay with Cryptococcus neoformans (setting [6]). Moreover, the MIC in the assay with Aspergillus fumigatus (setting [7]) was 25 µg/mL; in the assay with Aspergillus fumigatus (setting [8]) it was 12.5 µg/mL; against Aspergillus fumigatus (setting [9]), 25 µg/mL.
Turning to `CCCCCCC/C=C/[C@@H]1OC[C@@H](OCc2ccccc2)[C@H](OC)[C@@H]1OC(=O)CN.O=C(O)C(F)(F)F` [Example 31, (2S,3R,4S,5R)-5-benzyloxy-4-methoxy-2-[(E)-1-nonenyl]tetra-hydro-2H-pyran-3-yl glycinate trifluoroacetic acid salt], the MIC was 50 µg/mL against Candida albicans (setting [1]); 50 µg/mL against Candida albicans (setting [2]); 25 µg/mL in the assay with Candida albicans (setting [3]); 6.25 µg/mL in the assay with Cryptococcus neoformans (setting [4]); 12.5 µg/mL in the assay on Cryptococcus neoformans (setting [5]); 12.5 µg/mL with Cryptococcus neoformans (setting [6]). The MIC in the assay with Aspergillus fumigatus (setting [7]) worked out at 100 µg/mL; with Aspergillus fumigatus (setting [8]), 200 µg/mL; against Aspergillus fumigatus (setting [9]), 50 µg/mL.
